Laboratory results from patent publication US6613541B1, “Method for monitoring proteasome inhibitor drug action” (Millennium Pharmaceuticals, Inc., priority 1998, dated 2003).
Entries after “also recorded” stand apart in the source; their conditions may differ. Where two headings read alike, the source gives them in different places.

What was measured:
[1] = set-up: species or system Sprague-Dawley rats; conditions: rat, in vivo, iv
Protocol: A single dose intravenous pharmacokinetics study with N-(pyrazine) carbonyl-L-phenylalanine-L-leucine boronic acid (1) was conducted in Sprague-Dawley rats (140 to 280 g). Animals were assigned to 3 groups (6/sex in Groups 1 and 2; 9/sex in Group 3). Animals in groups 1, 2, and 3 received 0.03, 0.1 or 0.3 mg/kg of 1, respectively, in the same dose volume.
Blood samples (approximately 1.0 mL) were collected from the jugular vein of animals pre-dose and at approximately 10 and 30 min and 1, 3 and 24 h post-dose on Day 1.

20S proteasome [2] = test: Ratio of chymotryptic to tryptic activity, titration of inhibitor in human samples; type: biochemical
Protocol: The percent inhibition (%I) is then calculated according to the following equation: [formula]
μt=activation factor determined upon titration of the proteasome inhibitor. For the proteasome inhibitor 1, βt=1.28 in human samples.
Complete activation of the 20S roteasome is achieved within 10 minutes.
βt=activation factor determined upon titration of the proteasome inhibitor. For the proteasome inhibitor 1, βt=1.28 in human samples.

[3] = tested on: 20S proteasome in rat white blood cell lysates; test: Ratio of chymotryptic to tryptic activity in rat white blood cell lysates; type: biochemical; conditions: fit of vc/vt
Text: Data was fitted as in Example 10, to give kc/kt=17.6± and βt=1.1±0.2 (FIG. 13).

20S proteasome [4] = test: Ex vivo 20S proteasome activity in peripheral white blood cells of mice after single intravenous administration; set-up: species or system female CD2-F1 mice and female BALB/c mice
Protocol: (§1) The amount of 20S proteasome activity in the test sample is calculated according to the following formula: [formula]
(§2) Dose formulations of 1 were prepared daily during the course of the study. Dilutions were prepared from a stock solution. The stock solution of 1 was made up in 98% saline (0.9%), 2% ethanol with 0.1% ascorbic acid. Dilutions of the stock were made in the same vehicle.
(§3) Drugs were administered in vehicle intravenously (IV) using a dose volume of 100 μL per mouse or 1.0 mL/kg in rats. Control groups were administered with the vehicle (98% saline [0.9%], 2% ethanol, 0.1% ascorbic acid). Animals were dosed with 1 as a single IV bolus given either once or on multiple occasions.
(§4) Following IV dosing with 1, blood was withdrawn at various time points and peripheral white blood cells were isolated.
The vehicle was […] [0.9%], 2% ethanol, 0.1% ascorbic acid. Blood samples were collected at 1.0 and 24 h following administration. Due to the blood volume required in the 20S proteasome activity assay, groups of five mice were sacrificed at the same time and their blood pooled to generate single data points.

20S proteasome [5] = test: Ex vivo 20S proteasome activity in peripheral white blood cells of rats after repeat intravenous administration
Protocol: as §1, §3
In an additional repeat dose study, male Sprague-Dawley rats (250 to 450 g; n=6 per group) were treated with twice weekly intravenous doses of 1 (0.01 to 0.35 mg/kg/day in a dose volume of 1.0 mL/kg) for two weeks. […] Blood samples were collected 1.0 h after the last dose for evaluation of 20S proteasome activity.

20S proteasome [6] = test: Ex vivo 20S proteasome activity in peripheral white blood cells of rats after single intravenous administration; set-up: species or system female Wistar rats
Protocol: as §1, §2, §3, §4
Blood samples were collected at 1.0, 24 and 48 h following administration of 1.

[7] = tested on: purified 20S proteasome from rabbit reticulocytes (tryptic activity); test: Tryptic activity of purified 20S proteasome (Rs substrate, fluorometry)
Protocol: The assay is based upon the SDS-inducible chymotrypsin-like and trypsin-like activities of free 20S proteasome particles. It uses fluorometry to measure the rate at which the 20S proteasome hydrolyzes an amide bond in a small peptide substrate.
The Rs substrate is dissolved to 10 mM in DMSO. The Rs substrate buffer, containing 20 mM HEPES, 0.5 mM EDTA, 0.6% DMSO, and 60 μM Rs substrate, is prepared.
20 μL of a test sample is added to a cuvette containing 2 mL of Rs substrate buffer at 37° C., and the reaction is allowed to run for 10 minutes. Complete activation of the 20S proteasome is achieved within 10 minutes. Consistent results are obtained for readings taken after 4 minutes and up to 10 minutes. The maximum linear slope for at least 1 minute of data is measured. If the rate is less than 1 pmol AMC/sec, the measurement is repeated using 20 μL of the test sample in 800 μL Rs buffer.
(§5) Chymotryptic and tryptic assays were performed as described in Examples 3 and 5 at increasing concentrations of the proteasome inhibitor 1.
Chymotryptic and tryptic assays were performed as described in Examples 3 and 5 at increasing concentrations of the proteasome inhibitor 1. The data was fitted to vc/vt=kc/kt*(1−f)/(1−f+βt*f), where kc/kt=2.88±0.03, βt=1.38±0.05, and %I=f*100 (FIG. 12).

20S proteasome [8] = test: Ex vivo 20S proteasome activity in primate white blood cells, twice weekly intravenous dosing for 4 weeks; set-up: species or system Cynomolgus monkeys
Protocol: Male and female Cynomolgus monkeys (2.2 to 3.5 kg) were assigned to four groups (5/sex/group). Each group received 0 (vehicle control), 0.045, 0.067 or 0.100 mg/kg/dose of 1 as a single intravenous injection in a dose volume of 0.3 mL/kg twice weekly for 4 weeks (days 1, 5, 8, 12, 15, 19, 22 and 26). […] Three males from the control, low- and mid-dose groups, two high-dose males, and three females/group were sacrificed at the end of treatment on Day 27. Two animals/sex/group were designated as recovery animals and received treatment for 4 weeks followed by 2 weeks of recovery; they were sacrificed on Day 41.
Blood was collected for 20S proteasome activity determination prior to treatment, at 1.0 h after dosing on Days 1, 8, 15 and 22, and at 1.0 h prior to dosing on Days 5, 12, 19 and 26; and on Days 31, 34, 38, and 41 (recovery sacrifice animals).

20S proteasome [9] = target: T1, 20S proteasome (Rattus norvegicus, UniProt P28075)
T1 sequence (P28075 60-263): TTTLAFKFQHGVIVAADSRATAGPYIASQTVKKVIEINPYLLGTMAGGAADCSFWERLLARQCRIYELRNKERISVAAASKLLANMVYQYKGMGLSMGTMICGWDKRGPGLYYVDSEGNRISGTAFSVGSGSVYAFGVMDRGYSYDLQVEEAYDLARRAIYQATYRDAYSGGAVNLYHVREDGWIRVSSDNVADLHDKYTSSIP
Protocol: In two studies, female Wistar rats (150 to 200 g) were administered a single intravenous dose of 1 (0.03, 0.1 and 0.3 mg/kg in a dose volume of 1.0 mL/kg). […] Tissue samples were collected from liver and brain at 1.0, 24 and 48 h following administration for evaluation of 20S proteasome activity.

20S proteasome [10] = target: T1, 20S proteasome; test: Ex vivo 20S proteasome activity in rat blood and tissues 1.0 h after intravenous administration (third study); set-up: from tissue; host or cells: rat liver and brain (Wistar); blood, brain, colon, liver, muscle, prostate, testes (Sprague-Dawley); species or system male Sprague-Dawley rats
Protocol: Blood and tissue samples were collected 1.0 h following administration for evaluation of 20S proteasome activity. The tissues collected were brain, colon, liver, muscle (gastrocnemius), prostate and testes.

[11] = tested on: purified 20S proteasome from rabbit reticulocytes (chymotryptic activity); test: Chymotryptic activity of purified 20S proteasome (Ys substrate, fluorometry)
Protocol: The assay is based upon the SDS-inducible chymotrypsin-like activity of free 20S particles. It uses fluorometry to measure the rate at which the 20S proteasome hydrolyzes an amide bond in a small peptide substrate. Measurement of this rate in the absence and in the presence of an inhibitor allows a determination of how enzyme is bound by inhibitor.
The Ys substrate is dissolved to 6 mM in DMSO. A 2% (2 g/100 mL) solution of SDS in MilliQ water is prepared in a glass bottle. The Ys substrate buffer, containing 20 mM HEPES, 0.5 mM EDTA, 0.035% SDS, 1% DMSO, and 60 μM Ys substrate, is prepared. The final pH of the Ys buffer is 8.0.
10 μL of a test sample is added to a cuvette containing 2 mL of Ys substrate buffer at 37° C., and the reaction is allowed to run for 10 minutes. Complete activation of the 20S proteasome is achieved within 10 minutes. Consistent results are obtained for readings taken after 4 minutes and up to 10 minutes. The maximum linear slope for at least 1 minute of data is measured. If the rate is less than 1 pmol AMC/sec, the measurement is repeated using 20 μL of the test sample.
as §5

[12] = alternate daily IV for 14 days, 24 h after last dose
[13] = daily IV for 7 days, 24 h after last dose
[14] = once weekly IV for 8 weeks, 24 h after last dose
[15] = inferred from absence of 20S proteasome inhibition
[16] = 1.0 h after single IV 0.1 and 0.3 mg/kg

## CC(C)C[C@H](NC(=O)[C@H](Cc1ccccc1)NC(=O)c1cnccn1)B(O)O [compound 1, N-(pyrazine)carbonyl-L-phenylalanine-L-leucine boronic acid]
[1]
  clearance from the blood: rapidly cleared from the blood
[1]; 0.3 mg/kg
  time to peak concentration (Tmax): ≤ 10 min
20S proteasome [2]
  βt (activation factor determined upon titration of the proteasome inhibitor): 1.28
[3]
  βt (activation factor of tryptic activity): 1.1±0.2
20S proteasome [4]; 1.0 h after single IV 0.1 to 3.0 mg/kg, all dose groups
  20S proteasome activity in white blood cells: significant (p<0.05) dose-related decrease
20S proteasome [4]; 24 h after single IV 0.1 to 3.0 mg/kg
  20S proteasome activity in white blood cells: starts to recover
20S proteasome [4]; single intravenous injection, mice
  inhibition of 20S proteasome activity in peripheral white blood cells (overall): dose-dependent and reversible inhibition
20S proteasome [5]; 24 h after 7 daily IV doses
  extent of 20S proteasome inhibition compared with single dose: greater than that observed 24 h after administration of a single intravenous dose
20S proteasome [5]; [12]
  20S proteasome activity in white blood cells: significant dose-related decrease
  dose groups with significant (p<0.05) decrease in 20S proteasome activity: ≥ 0.2 mg/kg
20S proteasome [5]; [13]
  20S proteasome activity in white blood cells: dose-related decrease
  doses with significant inhibition of 20S proteasome activity: ≥ 0.05 mg/kg
20S proteasome [5]; [14]
  20S proteasome activity in white blood cells: significant (p<0.05) dose-related decrease
  dose groups with significant (p<0.05) decrease in 20S proteasome activity: ≥ 0.1 mg/kg
20S proteasome [5]; twice weekly IV for 2 weeks (4 doses, 0.01 to 0.35 mg/kg/day), male Sprague-Dawley rats, 1.0 h after last dose
  20S proteasome activity in white blood cells: dose-related decrease
20S proteasome [5]; twice weekly IV for 2 weeks, male Sprague-Dawley rats, 1.0 h after last dose
  dose groups with significant (p<0.05) decrease in 20S proteasome activity: ≥ 0.03 mg/kg
20S proteasome [6]; 1.0 h after single IV 0.03 to 0.3 mg/kg
  20S proteasome activity in white blood cells: significant (p<0.05) dose-related decrease
20S proteasome [6]; 24 h after single IV 0.03 to 0.3 mg/kg
  20S proteasome activity in white blood cells: smaller, but remained significant (p<0.05) in the higher dose groups
20S proteasome [6]; 48 h after single IV 0.03 to 0.3 mg/kg
  20S proteasome activity in white blood cells: no longer significantly decreased
20S proteasome [6]; single intravenous injection, rats
  inhibition of 20S proteasome activity in peripheral white blood cells (overall): dose-dependent and reversible inhibition
[7]; fit of vc/vt, purified 20S proteasome from rabbit reticulocytes
  βt (activation factor of tryptic activity): 1.38±0.05
[7]; increasing concentrations of 1, same concentration range
  effect on tryptic activity: activation; also recorded: activated
20S proteasome [8]; 0.100 mg/kg/dose IV twice weekly, Day 26 after receiving 8 doses
  clinical condition of high-dose male: sacrificed in moribund condition
20S proteasome [8]; 1.0 h after dosing, 0.045, 0.067 or 0.100 mg/kg/dose IV twice weekly
  white blood cell 20S proteasome activity: significant and dose-related decrease
20S proteasome [8]; 72 hours after dosing, prior to the subsequent dose
  white blood cell 20S proteasome activity: recovered
20S proteasome [8]; high-dose male at sacrifice on Day 26 after 8 doses
  20S proteasome activity in white blood cells of the moribund animal: low residual 20S proteasome activity
20S proteasome [9]; 1.0 h after single IV 0.03, 0.1 and 0.3 mg/kg
  20S proteasome activity in rat liver: significant (p<0.05) dose-related decrease
20S proteasome [9]; 24 h after single IV, high dose group 0.3 mg/kg
  20S proteasome activity in rat liver: smaller, but remained significant (p<0.05) in the high dose group
20S proteasome [9]; 48 h after single IV
  20S proteasome activity in rat liver: returned to baseline
20S proteasome [9]; [15]
  penetration of 1 into brain tissue: lack of penetration
20S proteasome [9]; single IV 0.03, 0.1 and 0.3 mg/kg, 1.0, 24 and 48 h
  20S proteasome inhibition in brain tissue: No 20S proteasome inhibition was observed
20S proteasome [10]; [16]
  20S proteasome activity in peripheral white blood cells, colon, liver, muscle (gastrocnemius), and prostate: Significant (p<0.05) dose-related decreases
  20S proteasome inhibition in brain and testes: No 20S proteasome inhibition was observed
20S proteasome [10]; [15]
  penetration of 1 into brain and testes: lack of 1 penetration
[11]
  βc (factor for chymotryptic site activity of E I complex; 0 = total inhibition): 0
[11]; increasing concentrations of 1
  effect on chymotryptic activity: fully inhibits; also recorded: fully inhibitable
